Data reported in the supplement of paper PMC10307832.

Experiments:
Test in all cases: relative viability (nuclei count vs DMSO), 5 days (fraction); higher = more cells survive
EHT 1864 + Bortezomib = compound: C1COCCN1CC2=CC(=O)C(=CO2)OCCCCCSC3=C4C=CC(=CC4=NC=C3)C(F)(F)F [EHT 1864] + CC(C)C[C@H](NC(=O)[C@H](Cc1ccccc1)NC(=O)c1cnccn1)B(O)O [Bortezomib] (partner 0.002 µM)
Method in brief: (§1)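 Relative viability is defined as nuclei in treated wells over nuclei in vehicle wells. Duplicate plates were run and medians reported. Lung cancer cell lines in 1536-well plates were dosed by pin tool one day after seeding, with one drug or with a fixed anchor-drug dose plus five library-drug doses (not always all listed) in √10 steps, and nuclei were counted after 5 days.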

EHT 1864 + Lapatinib = compound: C1COCCN1CC2=CC(=O)C(=CO2)OCCCCCSC3=C4C=CC(=CC4=NC=C3)C(F)(F)F [EHT 1864] + CS(=O)(=O)CCNCc1ccc(-c2ccc3ncnc(Nc4ccc(OCc5cccc(F)c5)c(Cl)c4)c3c2)o1 [Lapatinib] (partner 2 µM)
Method in brief: as §1

EHT 1864 + AZD7762 = compound: C1COCCN1CC2=CC(=O)C(=CO2)OCCCCCSC3=C4C=CC(=CC4=NC=C3)C(F)(F)F [EHT 1864] + NC(=O)Nc1cc(-c2cccc(F)c2)sc1C(=O)N[C@H]1CCCNC1 [AZD7762] (partner 0.2 µM)
Method in brief: as §1

EHT 1864 + Decitabine = compound: C1COCCN1CC2=CC(=O)C(=CO2)OCCCCCSC3=C4C=CC(=CC4=NC=C3)C(F)(F)F [EHT 1864] + Nc1ncn([C@H]2C[C@H](O)[C@@H](CO)O2)c(=O)n1 [Decitabine] (partner 2 µM)
Method in brief: as §1

Cell Line	relative viability (EHT 1864 + Bortezomib; first compound 0.04 µM)	relative viability (EHT 1864 + Bortezomib; first compound 0.1265 µM)	relative viability (EHT 1864 + Bortezomib; first compound 0.4 µM)	relative viability (EHT 1864 + Bortezomib; first compound 1.265 µM)	relative viability (EHT 1864 + Bortezomib; first compound 4 µM)	relative viability (EHT 1864 + Lapatinib; first compound 0.04 µM)	relative viability (EHT 1864 + Lapatinib; first compound 0.1265 µM)	relative viability (EHT 1864 + Lapatinib; first compound 0.4 µM)	relative viability (EHT 1864 + Lapatinib; first compound 1.265 µM)	relative viability (EHT 1864 + Lapatinib; first compound 4 µM)	relative viability (EHT 1864 + AZD7762; first compound 0.04 µM)	relative viability (EHT 1864 + AZD7762; first compound 0.1265 µM)	relative viability (EHT 1864 + AZD7762; first compound 0.4 µM)	relative viability (EHT 1864 + AZD7762; first compound 1.265 µM)	relative viability (EHT 1864 + AZD7762; first compound 4 µM)	relative viability (EHT 1864 + Decitabine; first compound 0.04 µM)	relative viability (EHT 1864 + Decitabine; first compound 0.1265 µM)	relative viability (EHT 1864 + Decitabine; first compound 0.4 µM)	relative viability (EHT 1864 + Decitabine; first compound 1.265 µM)	relative viability (EHT 1864 + Decitabine; first compound 4 µM)
201T	1.14	1.04	1.05	1.09	1.09	1.07	1	1.07	1.01	1.01	0.578	0.575	0.61	0.594	0.652	0.86	0.874	0.863	0.8	0.778
A549	–	–	–	–	–	0.927	0.894	0.996	0.914	0.625	–	–	–	–	–	0.263	0.213	0.257	0.284	0.323
A-427	1.06	1.02	0.944	0.931	0.863	1.09	1.06	1	1.09	1.07	0.835	0.775	0.738	0.762	0.791	0.566	0.572	0.548	0.564	0.59
ABC-1	0.32	0.306	0.316	0.371	0.303	1.06	1.15	0.949	0.729	1.15	0.977	0.805	0.623	0.843	1.52	1.35	0.91	1.15	0.881	0.901
BEN	0.8	0.719	0.64	0.549	0.624	0.811	0.638	0.671	0.556	0.666	0.681	0.632	0.86	0.665	0.802	0.775	0.727	0.767	0.764	0.702
CAL-12T	1.03	0.815	0.928	0.965	0.981	0.63	0.562	0.677	0.675	0.799	0.689	0.543	0.624	0.517	0.516	–	–	–	–	–
COR-L23	1.08	0.85	1.01	1.05	0.867	0.975	0.814	0.86	0.825	0.889	–	–	–	–	–	0.523	0.343	0.473	0.475	0.307
COR-L 105	0.772	0.7	0.941	0.751	0.727	0.345	0.374	0.338	0.38	0.334	–	–	–	–	–	0.781	0.578	0.574	0.786	0.637
Calu-6	0.97	0.844	0.846	1.11	0.917	1.03	0.933	1.03	1.04	0.857	–	–	–	–	–	–	–	–	–	–
ChaGo-K-1	0.939	1.05	0.997	–	0.965	–	–	–	–	–	0.881	0.834	0.956	0.871	0.907	0.584	0.501	0.527	0.477	0.531
EKVX	0.995	0.984	0.971	0.818	0.977	0.238	0.216	0.205	0.207	0.21	0.685	0.661	0.484	0.764	0.684	0.372	0.333	0.317	0.329	0.381
EMC-BAC-2	1.07	0.891	1.06	0.951	1.23	0.901	0.765	0.765	0.845	0.882	1.24	0.944	1.1	1.09	0.974	0.857	0.935	1	1.04	0.997
EPLC-272H	0.774	0.63	0.839	0.823	0.977	1.06	0.624	1.12	0.88	0.801	0.387	0.379	0.267	0.259	0.236	0.406	0.359	0.405	0.355	0.396
H3255	0.697	0.6	1.11	0.784	1.03	0.235	0.239	0.275	0.298	0.317	0.797	0.795	0.995	0.867	1.04	0.585	0.548	–	0.573	0.677
HARA	1.12	1.11	1.2	1.12	0.999	0.718	0.702	0.688	0.706	0.758	0.626	–	0.329	0.262	0.328	0.532	–	0.563	0.564	0.425
HCC-15	0.955	0.808	1.04	0.867	1.05	0.859	0.61	0.872	0.76	0.873	1.01	–	1.29	1.36	1.19	0.735	–	0.62	0.624	0.624
HCC-44	0.968	0.757	0.812	0.851	0.876	1.04	0.822	0.955	1.05	0.965	1.01	0.896	0.934	1.03	1.01	0.951	0.797	0.914	0.981	0.987
HCC-78	0.409	0.534	0.432	0.456	1.1	0.875	0.525	0.382	0.345	1.05	0.82	0.59	0.67	0.602	0.422	0.735	0.726	0.577	0.713	0.789
